Results from patent US20250034135A1, “ANTI-APOPTOTIC PROTEIN BCL-2 INHIBITOR, PHARMACEUTICAL COMPOSITION AND USES THEREOF” (HANGZHOU HEALZEN THERAPEUTICS CO., LTD., priority 2021, published 2025).
Where two headings read alike, the source gives them in different places.

Legend:
BCL2 = BCL2 (Homo sapiens (Human), UniProt P10415); assay: Molecular level activity test of anti-apoptotic protein BCL2 (HTRF, binding to Bim peptide); details: HTRF, binding of BCL2 to Bim peptide; read-out: BCL2 nM (inhibitory activity, IC50)
Method in brief: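 Signal comes from proximity of anti-His-labelled BCL2 and streptavidin-XL665-bound biotin-BIM peptide. Test compounds, added in 2% DMSO, were preincubated with protein and peptide for one hour; detection reagents then incubated four hours at room temperature before reading.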

BCL-XL = BCL-XL (Homo sapiens (Human), UniProt Q07817); assay: BCL-XL enzyme molecular level activity test (HTRF, binding to BIM peptide); details: binding of BCL-XL to BIM peptide, read-out: BCL-XL inhibitory activity (IC50)
Description: In a white shallow 384-well plate, a total reaction volume was 10 μL. Specifically, it included 2 μL of the compound to be tested (2% DMSO), […] His-tagged recombinant protein, and 4 μL Biotin-tagged BIM protein peptide. After 1 hour of reaction, 5 μL of each Anti-His and streptavidin-tagged XL665 antibody diluents diluted with a detection buffer were added. After incubating at room temperature for 4 hours, the values were read using the Envision multifunctional microplate reader to detect the effect of the compound to be tested on the binding ability of BCL-XL to BIM protein peptides. The Envision parameter settings were exciting light at 320 nm, and emitting light at 615 nm and 665 nm. The binding ability of anti-apoptotic proteins to Bim protein peptides was indirectly reflected by the signal ratio of 665 nm and 615 nm. In the reaction, background wells without BCL2 and active wells for full binding of recombinant proteins without compounds and Bim protein peptides were set up.

RS4; 11 cells = assay: Tumor proliferation inhibitory activity test (MTS) on RS4; 11; format: cell-based; details: Homo sapiens, RS4-11, 72 h, 3 days incubation
Description: The cell proliferation inhibitory ability of the compounds on RS4; 11 was tested using the MTS method. MTS is a tetrazolium blue salt compound that can be reduced by various dehydrogenases in live cell mitochondria to their respective colored methylzan products. Its color depth is highly correlated with the number of live cells in certain sensitive cell lines within a certain range. RS4; 11, RS4; 11 (BCL-2-G101V) and MOLT-4 tumor cells were cultivated separately and collected, 180 μL of cell suspension was added to each well in a 96-well cell plate, 20 μL of DMSO with a final concentration of 0.2% was added to the control cell wells, 20 μL of gradient diluted compounds were added to cell wells, and the treated cells were incubated in a 5% CO2 incubator at 37° C. for 3 days. After the incubation was completed, the reaction solution was prepared according to the MTS reagent kit, 20 μL was added per well and incubated in a 5% CO2 incubator at 37° C. for 3-4 hours. The absorbance value at 490 nm was read using an enzyme-linked immunosorbent assay (ELISA) plate, and the absorbance value at 690 nm was used as the background value, with OD490 nm-OD690 nm as the final raw data. The formula for calculating the inhibition ratio of compounds was as follows: inhibition ratio=(ODDMSO−ODCompound)/(ODDMSO−ODblank)×100%.

BCL2 (G101V) = BCL2 (G101V) (Homo sapiens (Human), UniProt P10415, G101V); assay: Molecular level activity test of anti-apoptotic protein BCL2 (G101V) (HTRF, binding to Bim peptide); details: inhibition of BCL2 (G101V) binding to Bim peptide, read-out: BCL-2 (G101V)
Description: (§1) The detection of the binding ability between anti-apoptotic protein BCL2 (G101V) and pro-apoptotic protein Bim was performed using Homogeneous Time-Resolved Fluorescence technology. The reaction of this method occurred in a white shallow 384-well plate, with a total reaction volume of 10 μL. Specifically, it included 2 μL of the compound to be tested (2% DMSO), 4 μL His-tagged recombinant protein, and 4 μL Biotin-tagged BIM protein peptide. After 1 hour of reaction, 5 L of each Anti-His and streptavidin-tagged XL665 antibody diluents diluted with a detection buffer were added. After incubating at room temperature for 4 hours, the values were read using the Envision multifunctional microplate reader to detect the effect of the compound to be tested on the binding ability of BCL2 (G101V) to BIM protein peptides.

BCL2 (D103Y) = BCL2 (D103Y) (Homo sapiens (Human), UniProt P10415, D103Y); assay: Molecular level activity test of BCL2 (D103Y) (HTRF, binding to Bim peptide); details: read-out: BCL-2 (D103Y) (nM) (inhibitory activity, IC50)
Description: as §1, with “BCL2 (D103Y)” for “BCL2 (G101V)”, “5 μL” for “5 L”

Chain of BCL-XL (Q07817 whole entry): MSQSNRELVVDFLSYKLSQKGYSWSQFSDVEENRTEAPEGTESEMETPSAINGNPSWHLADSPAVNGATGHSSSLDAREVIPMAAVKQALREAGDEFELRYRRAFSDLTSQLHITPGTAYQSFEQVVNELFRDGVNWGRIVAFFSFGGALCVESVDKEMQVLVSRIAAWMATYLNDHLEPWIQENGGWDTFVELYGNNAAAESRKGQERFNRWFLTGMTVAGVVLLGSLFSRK

Compound | IC50 (BCL2) | IC50 (BCL-XL; values in nM) | IC50 (RS4; 11 cells) | IC50 (BCL2 (G101V)) | IC50 (BCL2 (D103Y)) | IC50 (BCL-XL; values given in μM)
COc1cc(CN2CCN(C3CC4(CCN(c5cc(Oc6cnc7[nH]ccc7c6)c(C(=O)NS(=O)(=O)c6ccc(NCC7(F)CCOCC7)c([N+](=O)[O-])c6)cc5F)CC4)C3)[C@H](c3ccccc3C(C)C)C2)ccc1CN1CCCC1 [compound 248, (R)-2-((1H-pyrrolo[2,3-b]pyrid-5-yl)oxy)-5-fluoro-N-((4-(((4-fluorotetrahydro-2H-pyran-4-yl)methyl)amino)-3-nitrophenyl)sulfonyl)-4-(2-(2-(2-isopropylphenyl)-4-(3-methoxy-4-(pyrrolidin-1-ylmethyl)benzyl)piperazin-1-yl)-7-azaspiro[3.5]non-7-yl)benzamide] | < 10 nM | > 500 nM | 0.5 to 1 nM | < 10 nM | < 10 nM | 
CC(C)c1ccccc1[C@@H]1CN(Cc2ccc(CN3CCCC3)cc2)CCN1C1CC2(CCN(c3cc(Oc4cnc5[nH]ccc5c4)c(C(=O)NS(=O)(=O)c4ccc(NCC5(F)CCOCC5)c([N+](=O)[O-])c4)cc3F)CC2)C1 [compound 245, (R)-2-((1H-pyrrolo[2,3-b]pyrid-5-yl)oxy)-5-fluoro-N-((4-(((4-fluorotetrahydro-2H-pyran-4-yl)methyl)amino)-3-nitrophenyl)sulfonyl)-4-(2-(2-(2-isopropylphenyl)-4-(4-(pyrrolidin-1-ylmethyl)benzyl)piperazin-1-yl)-7-azaspiro[3.5]non-7-yl)benzamide] | < 10 nM | > 500 nM | 0.5 to 1 nM | < 10 nM | < 10 nM | 
COc1ccc(CN2CCN(C3CC4(CCN(c5cc(Oc6cnc7[nH]ccc7c6)c(C(=O)NS(=O)(=O)c6cc([N+](=O)[O-])c(NCC7CCOCC7)c7c6OCO7)cc5F)CC4)C3)[C@H](c3ccccc3C(C)C)C2)cc1 [compound 120, (R)-2-((1H-pyrrolo[2,3-b]pyrid-5-yl)oxy)-5-fluoro-4-(2-(2-(2-isopropylphenyl)-4-(4-methoxybenzyl)piperazin-1-yl)-7-azaspiro[3.5]non-7-yl)-N-((6-nitro-7-(((tetrahydro-2H-pyran-4-yl)methyl)amino)benzo[d][1,3]dioxocyclopent-4-yl)sulfonyl)benzamide] | < 10 nM |  | 0.5 to 1 nM | < 10 nM | < 10 nM | 1600 nM

Other lines, results leading:

IC50 (BCL2) | IC50 (BCL-XL; values in nM) | IC50 (RS4; 11 cells) | IC50 (BCL2 (G101V)) | IC50 (BCL2 (D103Y)) | IC50 (BCL-XL; values given in μM) | Compound
< 10 nM | > 500 nM | 0.5 to 1 nM | < 10 nM | < 10 nM |  | CC(C)c1ccccc1[C@@H]1CN(Cc2cnn(C)c2)CCN1C1CC2(CCN(c3cc(Oc4cnc5[nH]cc(F)c5c4)c(C(=O)NS(=O)(=O)c4ccc(NCC5(F)CCOCC5)c([N+](=O)[O-])c4)cc3F)CC2)C1 [compound 255, (R)-5-fluoro-2-((3-fluoro-1H-pyrrolo[2,3-b]pyrid-5-yl)oxy)-N-((4-(((4-fluorotetrahydro-2H-pyran-4-yl)methyl)amino)-3-nitrophenyl)sulfonyl)-4-(2-(2-(2-isopropylphenyl)-4-((1-methyl-1H-pyrazol-4-yl)methyl)piperazin-1-yl)-7-azaspiro[3.5]non-7-yl)benzamide]
< 10 nM |  | 0.5 to 1 nM | < 10 nM | < 10 nM | 2700 nM | COc1ccc(CN2CCN(C3CC4(CCN(c5ccc(C(=O)NS(=O)(=O)c6cc([N+](=O)[O-])c(NCC7CCOCC7)c7c6OCCO7)c(Oc6cnc7[nH]ccc7c6)c5)CC4)C3)[C@H](c3ccccc3C(C)C)C2)cc1 [compound 146, (R)-2-((1H-pyrrolo[2,3-b]pyrid-5-yl)oxy)-4-(2-(2-(2-isopropylphenyl)-4-(4-methoxybenzyl)piperazin-1-yl)-7-azaspiro[3.5]non-7-yl)-N-((7-nitro-8-(((tetrahydro-2H-pyran-4-yl)methyl)amino)-2,3-dihydrobenzo[b][1,4]dioxan-5-yl)sulfonyl)benzamide]
